According to PubChem BioAssay (NCI):
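Grown in 96-well plates, cells were treated for 48 hours with each compound at five concentrations. Insufficient inhibition: endpoint recorded as highest concentration tested. Here, GI50 denotes the concentration required for 50% inhibition of growth. Definition used: TGI = concentration required for complete inhibition of growth.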

Tests used:
Test in all cases: NCI tumour cell line growth inhibition, 48 h
HCC-2998 colon = tested on: HCC-2998 colon
HT29 colon = tested on: HT29 colon
K-562 leukemia = tested on: K-562 leukemia
M14 melanoma = tested on: M14 melanoma
MALME-3M melanoma = tested on: MALME-3M melanoma
NCI-H226 lung = tested on: NCI-H226 lung
U251 CNS = tested on: U251 CNS
UACC-62 melanoma = tested on: UACC-62 melanoma
BT-549 breast = tested on: BT-549 breast
MDA-MB-435 = tested on: MDA-MB-435

Row | Compound | TGI (HCC-2998 colon) [µM] | TGI (HT29 colon) [µM] | TGI (K-562 leukemia) [µM] | TGI (M14 melanoma) [µM] | TGI (MALME-3M melanoma) [µM] | TGI (NCI-H226 lung) [µM] | TGI (U251 CNS) [µM] | TGI (UACC-62 melanoma) [µM] | TGI (BT-549 breast) [µM] | GI50 (BT-549 breast) [µM] | GI50 (HCC-2998 colon) [µM] | GI50 (HT29 colon) [µM] | GI50 (K-562 leukemia) [µM] | GI50 (M14 melanoma) [µM] | GI50 (MALME-3M melanoma) [µM] | GI50 (NCI-H226 lung) [µM] | GI50 (U251 CNS) [µM] | GI50 (MDA-MB-435) [µM] | TGI (MDA-MB-435) [µM] | GI50 (UACC-62 melanoma) [µM]
1 | CC(=O)NC1C(OCc2ccccc2)OC(COC(=O)CCCCCNc2ccc([N+](=O)[O-])c3[nH]c4ccc(O)cc4c(=O)c23)C(O)C1OC(C)C(=O)N[C@@H](C)C(=O)N[C@H](CCC(=O)OCc1ccccc1)C(N)=O (stereo partly drawn) | 10.9 | 3.09 | > 100 | 3.15 | 2.87 | 12.3 | 7.04 | 4.27 |  |  |  |  |  |  |  |  |  |  |  | 
2 | C/C(=N\NS(=O)(=O)c1ccc(C)cc1)c1c(O)cc(C)oc1=O | > 100 | > 100 | > 100 | > 100 | > 100 | > 100 | > 100 | > 100 |  |  |  |  |  |  |  |  |  |  |  | 
3 | NC1=NC(c2ccccc2)CC(c2cc(Cl)cc(Br)c2O)=N1 (stereo not drawn) | 26.4 | 27 | 17.4 | 28.7 | 15.9 | 34.3 | 26.4 | 24.6 |  |  |  |  |  |  |  |  |  |  |  | 
4 | COc1cc2ccc(/C(C)=N/OC(C)=O)cc2cc1OC |  | > 100 | > 100 | > 100 | > 100 | > 100 | > 100 | > 100 |  |  |  |  |  |  |  |  |  |  |  | 
5 | C=CCCC(C)N(C(=O)OC(C)(C)C)S(=O)(=O)c1ccc(C)cc1 (stereo not drawn) | > 100 | > 100 | > 100 | > 100 | > 100 | > 100 | > 100 | > 100 |  |  |  |  |  |  |  |  |  |  |  | 
6 | CCCC1C(=O)C(CC)Cc2c(OC)ccc(OC)c21 (stereo not drawn) | > 100 | > 100 | > 100 | > 100 | > 100 | > 100 | > 100 | > 100 |  |  |  |  |  |  |  |  |  |  |  | 
7 | C[C@]12CC(C#N)C(=O)C(O)=C1CC[C@@H]1C2CC[C@@]2(C)C1CC[C@@H]2O (stereo partly drawn) | > 100 | > 100 | > 100 | > 100 | > 100 | > 100 | > 100 | 83.8 |  |  |  |  |  |  |  |  |  |  |  | 
8 | O=C(O)CN(c1ccccc1)S(=O)(=O)c1ccc(Cl)cc1 |  | > 100 | > 100 | > 100 | > 100 |  | > 100 | > 100 |  |  |  |  |  |  |  |  |  |  |  | 
9 | S=P(c1ccccc1)(c1ccccc1)C1(C2(P(=S)(c3ccccc3)c3ccccc3)CC2)CC1 | > 100 | > 100 | > 100 | > 100 |  | > 100 | > 100 | > 100 |  |  |  |  |  |  |  |  |  |  |  | 
10 | Cc1ccc(NC(=O)CC/C(CC(=O)c2ccc(Cl)cc2)=N\NC(=O)C(=O)NN)cc1C | > 100 | > 100 | > 100 | > 100 | > 100 | > 100 | > 100 | > 100 |  |  |  |  |  |  |  |  |  |  |  | 
11 | O=C(c1cc2c(C(F)(F)F)onc2c2ccccc12)C(F)(F)F | 60.4 | > 61.7 | > 40 | > 58.6 |  | 13.5 | 4.76 | 17 |  |  |  |  |  |  |  |  |  |  |  | 
12 | CCN(CC)CCOC(=O)/C(=C/c1ccc(OC)cc1)c1cc(OC)c(OC)c(OC)c1 |  | 18 | 27.9 | 19.9 | 34.1 | 54.5 | 25.5 | 24.1 |  |  |  |  |  |  |  |  |  |  |  | 
13 | Cc1[nH]c2ccccc2c1C1CC(=O)NC1=O (stereo not drawn) | > 100 |  | > 100 | > 100 | > 100 | > 100 | > 100 | > 100 |  |  |  |  |  |  |  |  |  |  |  | 
14 | CC1=C(/C=C/C2=CC(=C\C(=O)O)/CC(C3=C(C)CCCC3(C)C)C2)C(C)(C)CCC1 (stereo not drawn) |  | 28.6 |  | 28.5 | 34.1 | 23.9 | 23.1 | 23.1 |  |  |  |  |  |  |  |  |  |  |  | 
15 | COc1cc([C@@H]2c3cc4c(cc3[C@@H](NCc3ccc(C#N)cc3)C3COC(=O)[C@@H]32)OCO4)cc(OC)c1O (stereo partly drawn) | 3.69 | 3.15 | 15.9 | 6.55 | 4.9 | 2.26 | 1.55 | 2.75 |  |  |  |  |  |  |  |  |  |  |  | 
16 | N#Cc1ccc(-c2nc3ccc(Cl)cc3[nH]2)cc1 | > 100 | > 100 | > 100 | > 100 |  | > 100 | > 100 |  | > 100 |  |  |  |  |  |  |  |  |  |  | 
17 | CC1=C2C(=O)C(C)(C)C=C2C(=O)[C@](C)(O)C12CC2 | > 1 | > 1 | > 1 | > 1 | > 0.946 | > 1 | > 1 | > 1 |  |  |  |  |  |  |  |  |  |  |  | 
18 | C[C@@H](NC1CCC[C@@H]1O)c1ccccc1 (stereo partly drawn) | > 100 | > 100 | > 100 | > 100 | > 100 | > 100 | > 100 | > 100 |  |  |  |  |  |  |  |  |  |  |  | 

Row | Compound | TGI (HCC-2998 colon) [µM] | TGI (HT29 colon) [µM] | TGI (K-562 leukemia) [µM] | TGI (M14 melanoma) [µM] | TGI (MALME-3M melanoma) [µM] | TGI (NCI-H226 lung) [µM] | TGI (U251 CNS) [µM] | TGI (UACC-62 melanoma) [µM] | TGI (BT-549 breast) [µM] | GI50 (BT-549 breast) [µM] | GI50 (HCC-2998 colon) [µM] | GI50 (HT29 colon) [µM] | GI50 (K-562 leukemia) [µM] | GI50 (M14 melanoma) [µM] | GI50 (MALME-3M melanoma) [µM] | GI50 (NCI-H226 lung) [µM] | GI50 (U251 CNS) [µM] | GI50 (MDA-MB-435) [µM] | TGI (MDA-MB-435) [µM] | GI50 (UACC-62 melanoma) [µM]
19 | c1ccc2c(c1)nnn2CNc1ccc(N2CCOCC2)cc1 | > 100 | > 100 | > 100 | > 100 | > 100 | > 100 | > 100 | > 100 |  |  |  |  |  |  |  |  |  |  |  | 
20 | O=C(N/C(=C\c1ccc([N+](=O)[O-])cc1)c1nc2ccc(Cl)cc2[nH]1)c1ccccc1 | 33.8 | 43.9 | 52.7 | 31.3 | 97.9 |  | 34.9 | 50.1 |  |  |  |  |  |  |  |  |  |  |  | 
21 | CC(C)Cc1ccc(C(C)/C=C2\CCC(CN3CCCC3)C2=O)cc1 (stereo not drawn) | 19.3 | 23.2 | > 100 | 29.6 | 36.1 | 33.1 | 17.9 | 31.2 |  |  |  |  |  |  |  |  |  |  |  | 
22 | CCCCCCCC(=O)OCC1OC(n2cc(F)c(=O)[nH]c2=O)C(NC(=O)OCc2ccccc2)C(OC(=O)CCCCCCC)C1O (stereo not drawn) | > 100 | > 100 | 61.8 | 91.7 | 44.2 |  | 60.9 | 45.7 |  |  |  |  |  |  |  |  |  |  |  | 
23 | CC1Cc2c(N)nc(N3CCOCC3)nc2NC1=O (stereo not drawn) |  | > 100 | > 100 | > 100 | > 100 | > 100 | > 100 | > 100 |  |  |  |  |  |  |  |  |  |  |  | 
24 | CC(=O)O[C@H]1CCC2[C@@H]3CCC4Nc5c(cnn5-c5ccccc5)C[C@]4(C)C3CC[C@@]21C (stereo partly drawn) | 25.3 | 34.9 | 74.3 | 29.9 | 35.1 | 27.8 | 91.5 | 22.6 |  |  |  |  |  |  |  |  |  |  |  | 
25 | O=C1NC(=O)C(=O)C(c2nc3ccccc3s2)C1=O | > 100 | > 100 |  | > 100 | > 100 | > 100 | > 100 | > 100 |  |  |  |  |  |  |  |  |  |  |  | 
26 | COc1cc2c(=O)n(CCCn3ccnc3)c3c4cc5c(cc4ccc3c2cc1OC)OCO5 | > 100 | > 100 | > 100 | > 100 | > 100 | > 100 | 15.8 |  | > 100 | 0.701 | 13.4 | 0.492 | 0.669 | 0.698 | 2.02 | 0.246 | 0.393 |  |  | 
27 | CCN(CC)C(=O)CNC(=O)OC(C)(C)C | > 100 | > 100 | > 100 | > 100 | > 100 | > 100 | > 100 | > 100 |  |  |  |  |  |  |  |  |  |  |  | 
28 | CC(C(=O)c1ccccc1)C1(O)C(=O)Nc2ccccc21 (stereo not drawn) | > 100 | > 100 | > 100 | > 100 | > 100 | > 100 | > 100 | > 100 |  |  |  |  |  |  |  |  |  |  |  | 
29 | C/C=C1\C(=O)O[C@@H]2C1C[C@@H]1O[C@H]2[C@H](C)CCC/C(C)=C/CC[C@@]1(C)O (stereo partly drawn) | 6.33 | > 100 | > 100 |  | 18.5 |  | 23.6 | 20.7 |  |  | 2.95 | 25.4 | 9.72 |  | 3.47 |  | 10.3 | 6.67 | 22.9 | 7.16
30 | O=C(COc1ccc(Cl)cc1)N1N=C(c2ccc([N+](=O)[O-])o2)CC1(O)c1ccccc1 (stereo not drawn) | 16.1 | 16.3 | 29.7 | 29.5 | 23.4 | 55.6 | 15.5 | 19.7 |  |  |  |  |  |  |  |  |  |  |  | 
31 | NCCCn1c2c(c3cc4c(cc3c1=O)OCO4)C(=O)c1ccccc1-2 | 0.718 | > 100 | 0.602 | 1.1 |  | 24.8 | 0.753 | 5.5 |  |  | 0.237 | 0.0575 | 0.181 | 0.43 |  | 4.09 | 0.321 | 0.567 | 1.42 | 2.06
32 | N#Cc1nn(C2OC(COC(=O)c3ccccc3)C(OC(=O)c3ccccc3)C2OC(=O)c2ccccc2)c2nc[nH]c(=O)c12 (stereo not drawn) | > 100 | > 100 | > 100 | > 100 | 90.4 | > 100 | > 100 | > 100 |  |  |  |  |  |  |  |  |  |  | > 100 | 
33 | CC(Oc1ccc(OCC2CCCCC2)cc1)C(=O)O (stereo not drawn) |  | > 100 | > 100 | > 100 | > 100 | > 100 | > 100 | > 100 |  |  |  |  |  |  |  |  |  |  |  | 
34 | CCOC(=O)CNC1C(NC(C)=O)C(OC)OC2COC(c3ccccc3)OC21 (stereo not drawn) | > 100 | > 100 | > 100 | > 100 | > 100 | > 100 | > 100 | > 100 |  |  |  |  |  |  |  |  |  |  |  | 
35 | CC(C)c1cccc(C(C)C)c1N=C(N)C#N | > 100 | > 100 | > 61.7 | > 100 | > 100 | > 100 | > 93.2 | 99.1 |  |  |  |  |  |  |  |  |  |  |  | 
